Here are results for 27 compounds from ChEMBL document CHEMBL4373654, “Discovery of (aza)indole derivatives as novel respiratory syncytial virus fusion inhibitors” (Medchemcomm, 2019).

pEC50: −log10 of the molar value. Values after ≈ are worked out from the molar mass of the structure shown. Active and inactive are the calls of the source. No cut-off for these calls is given here. Some results are limits rather than exact numbers.

A short description of data set [1]: Therapeutic index, ratio of CC50 for cytotoxicity against human Hep2 cells to EC50 for antiviral activity against Respiratory syncytial virus Long infected in HEp-2 cells. The class given is toxicity, cell-based. As to conditions: read-out: Ratio CC50/EC50.
Data set [2] in a line: Cytotoxicity against human Hep2 cells assessed as reduction in cell viability after 6 days by MTT assay. The class given is cell-based. As to conditions: HEp-2 cells. For orientation: Tetrazolium assays rely on reduction of a dye to a coloured formazan, in cell work by metabolically active cells.
In data set [3] the test system is Respiratory syncytial virus. In words: Antiviral activity against Respiratory syncytial virus Long infected in HEp-2 cells assessed as reduction in virus induced cytopathic effect measured after 6 days by MTT assay. The class given is functional, organism-based. To be noted: human respiratory syncytial virus, HEp-2, 144 h. For orientation: Damage to the host cells serves as the signal in cytopathic effect assays.

Data set [4] in a line: Clearance in ICR mouse at 5 mg/kg, iv or 25 mg/kg, po administered as single dose. The class given is ADME, organism-based. As to conditions: in vivo.
Data set [5] is described as follows: Volume of distribution at steady state in ICR mouse at 5 mg/kg, iv administered as single dose. The class given is ADME, organism-based. As to conditions: in vivo, read-out: Vdss.
Data set [6] is described as follows: Solubility of compound by LYSA assay. The class given is physicochemical.
Data set [7] in a line: AUC in ICR mouse at 25 mg/kg, po administered as single dose. The class given is ADME, organism-based. To be noted: in vivo.
Data set [8] is described as follows: Half life in ICR mouse at 25 mg/kg, po administered as single dose. The class given is ADME, organism-based. To be noted: in vivo.
The test system of data set [9] is Respiratory syncytial virus. Description: Inhibition of Respiratory syncytial virus Long F protein expressed in Flp-In T-REx 293 cells assessed as syncytia formation at 1 nM after 3 days by microscopic analysis. The class given is cell-based.
The test system of data set [10] is Respiratory syncytial virus. Description: Inhibition of Respiratory syncytial virus Long F protein expressed in Flp-In T-REx 293 cells assessed as cell-cell fusion at 1 nM after 3 days by microscopic analysis. The class given is cell-based.
Data set [11] concerns Respiratory syncytial virus. In words: Inhibition of Respiratory syncytial virus Long F protein expressed in Flp-In T-REx 293 cells assessed as reduction in syncytia formation at 10 nM after 3 days by microscopic analysis relative to control. The class given is cell-based.
Data set [12] is described as follows: Oral bioavailability in ICR mouse at 25 mg/kg administered as single dose. To be noted: in vivo. The class given is ADME, organism-based.
Data set [13] in a line: AUC in ICR mouse at 10 mg/kg, po administered as single dose. To be noted: in vivo. The class given is ADME, organism-based.
Data set [14] can be described thus: Half life in ICR mouse at 10 mg/kg, po administered as single dose. The class given is ADME, organism-based. To be noted: in vivo.
Data set [15] is described as follows: Volume of distribution at steady state in ICR mouse at 2 mg/kg, iv administered as single dose. The class given is ADME, organism-based. As to conditions: in vivo, read-out: Vdss.
A short description of data set [16]: Oral bioavailability in ICR mouse at 10 mg/kg administered as single dose. To be noted: in vivo. The class given is ADME, organism-based.
Data set [17] in a line: Clearance in ICR mouse at 2 mg/kg, iv or 10 mg/kg, po administered as single dose. The class given is ADME, organism-based. To be noted: in vivo.

For orientation: CC50 means the concentration giving 50% cytotoxicity. Usually pEC50 stands for the EC50 on a negative log10 scale, so that one unit is a factor of ten. For `CS(=O)(=O)CCn1c(CN2C(=O)C3(CC3)c3ccncc32)cc2nc(Cl)ccc21`, the selectivity ratio in data set [1] turned out to be 1180. In addition, the CC50 at 144 h in data set [2] was determined as 74500 nM. For the same compound, in [3], the pEC50 is 7.20.
In general, solubility refers to how much of the substance goes into solution per volume. A high value points to much dissolved substance. By half-life is commonly meant how long it takes for the measured level to halve. Read a high half-life as slow decline. As for `CS(=O)(=O)CCn1c(CN2C(=O)C3(CC3)c3ccncc32)cc2cc(Cl)cnc21`, the selectivity ratio in data set [1] amounted to 1600. For the same compound, the clearance in [4] was found to be 23.7 mL/min/kg. Besides, the Vd in data set [5] came to 0.845 L/kg. In addition, the solubility in [6] was 5 µg/mL (≈ 11.6 µM). The CC50 at 144 h in data set [2] is 41700 nM. The compound further registered an AUC in data set [7] of 10200 µg/L/h. Moreover, the pEC50 in data set [3] is 7.59. This compound also showed a half-life in [8] of 0.7 h.
For `CS(=N)(=O)CCn1c(CN2C(=O)C3(CC3)c3ccncc32)cc2cc(Cl)ccc21` (configuration not stated), the selectivity ratio in [1] stood at 11200. In data set [2], the CC50 at 144 h is 78300 nM. Also, the pEC50 in [3] is 8.15.
For `CCc1cccc2c1cc(CN1C(=O)C3(CC3)c3ccncc31)n2CCS(C)(=O)=O`, in that order: 395, 86800 nM and 6.66.
Regarding `CS(=O)(=O)CCn1c(CN2C(=O)C3(CC3)c3ccncc32)cc2c(C#N)cccc21`, in data set [1], the selectivity ratio is over 106. In data set [2], the CC50 at 144 h is over 100000 nM. In addition, in [3], the pEC50 is 6.03.
For `CS(=O)(=O)CCCCn1c(CN2C(=O)C3(CC3)c3ccncc32)cc2cc(Cl)ccc21`, in that order: over 16700, over 100000 nM and 8.22.
On the same counts, the results for `CS(=O)(=O)CCn1c(CN2C(=O)C3(CC3)c3ccncc32)cc2cccc(Cl)c21` are 543, 86900 nM and 6.80.
On the same counts, the results for `CS(=O)(=O)CCn1c(CN2C(=O)C3(CC3)c3ccncc32)cc2c(C(F)(F)F)cccc21` are over 179, over 100000 nM and 6.25.
Turning to `CCS(=O)(=O)CCn1c(CN2C(=O)C3(CC3)c3ccncc32)cc2cc(Cl)ccc21`, the selectivity ratio in data set [1] was over 12500. Moreover, in data set [2], the CC50 at 144 h is over 100000 nM. Also, the pEC50 in data set [3] is 8.10.
For `CS(=O)(=O)CCn1c(CN2C(=O)C3(CC3)c3cccnc32)cc2cc(Cl)ccc21`, in that order: over 588, over 100000 nM and 6.77.
For `CS(=N)(=O)CCCn1c(CN2C(=O)C3(CC3)c3ccncc32)cc2cc(Cl)ccc21` (configuration not stated), in that order: 11400, 68300 nM and 8.22.
Turning to `Cc1cccc2c1cc(CN1C(=O)C3(CC3)c3ccncc31)n2CCS(C)(=O)=O`, the selectivity ratio in data set [1] is 6840. Besides, in data set [2], the CC50 at 144 h was found to be 61600 nM. Moreover, the pEC50 in [3] is 8.05.
On to `COc1cccc2c1cc(CN1C(=O)C3(CC3)c3ccncc31)n2CCS(C)(=O)=O`, for which the selectivity ratio in [1] is over 1350. In addition, the CC50 at 144 h in [2] is over 100000 nM. Moreover, the pEC50 in [3] was 7.13.
Consider `CS(=O)(=O)CCn1c(CN2C(=O)C3(CC3)c3ccncc32)cc2c(F)cccc21`, for which, in data set [1], the selectivity ratio is over 526. Further, the CC50 at 144 h in data set [2] is over 100000 nM. Besides, the pEC50 in [3] is 6.72.
With `CS(=O)(=O)CCn1c(CN2C(=O)C3(CC3)c3ccncc32)cc2ccccc21`, in [1], the selectivity ratio came out at 352. In data set [2], the CC50 at 144 h was 77500 nM. In addition, in data set [3], the pEC50 is 6.66.
For `C[S+]([O-])CCCn1c(CN2C(=O)C3(CC3)c3ccncc32)cc2cc(Cl)ccc21` (configuration not stated), in that order: 10200, 92100 nM and 8.05.
For `CS(=O)(=O)CCn1c(CN2C(=O)C3(CC3)c3ccncc32)cc2ccc(Cl)cc21`, in that order: 12, 59700 nM and 5.32.
In general, inhibition refers to the change of the read-out against control, counted positive when it falls. For orientation: bioavailability means the share of a dose that reaches the circulation, judged against a reference dose that is usually intravenous. A higher bioavailability goes with much systemic uptake. `O=C1N(Cc2cc3cc(Cl)ccc3n2[C@@H]2CCS(=O)(=O)C2)c2cnccc2C12CC2`: the selectivity ratio in data set [1] was found to be 18600. The inhibition entry in data set [9] and in [10] was “inactive” throughout. The clearance in data set [4] came out at 30.2 mL/min/kg. Besides, in data set [5], the Vd stood at 2.35 L/kg. Also, the solubility in [6] was found to be 2 µg/mL (≈ 4.53 µM). Besides, the CC50 at 144 h in [2] turned out to be 37100 nM. Further, in [7], the AUC came to 3360 µg/L/h. For the same compound, the inhibition in [11] came to 100%. The compound further had a bioavailability in data set [12] of 24.5%. Besides, the pEC50 in [3] was 8.70. The same compound gave a half-life in [8] of 3.04 h.
Consider `CS(=O)(=O)CCn1c(CN2C(=O)C3(CC3)c3ccncc32)cc2c(Br)cccc21`, for which the selectivity ratio in [1] was 3560. Moreover, in data set [2], the CC50 at 144 h stood at 49900 nM. In data set [3], the pEC50 was 7.85.
In the case of `CS(=O)(=O)CCn1c(CN2C(=O)C3(CC3)c3cnccc32)cc2cc(Cl)ccc21`, the selectivity ratio in data set [1] stood at 484. Besides, the half-maximal cytotoxic concentration (CC50) at 144 h in [2] worked out at 96800 nM. In addition, the pEC50 in data set [3] was 6.70.
Regarding `CS(=O)(=O)CCn1c(CN2C(=O)C3(CC3)c3ccncc32)cc2cc(Cl)ccc21`, the selectivity ratio in data set [1] came out at 3740. This compound also showed a clearance in [4] of 54.2 mL/min/kg. Besides, in data set [5], the Vd is 1.38 L/kg. The same compound registered a solubility in data set [6] of 17 µg/mL (≈ 39.5 µM). Moreover, the CC50 at 144 h in data set [2] turned out to be 67400 nM. Besides, the AUC in data set [7] turned out to be 1550 µg/L/h. The pEC50 in data set [3] was 7.74. Besides, the half-life in [8] was 0.64 h.
Take `CS(=O)(=O)CCCn1c(CN2C(=O)C3(CC3)c3ccncc32)cc2cc(Cl)ccc21`: the selectivity ratio in [1] was determined as 12900. The CC50 at 144 h in [2] was 38600 nM. Besides, the pEC50 in data set [3] is 8.52.
For `CCS(=O)(=O)CCCn1c(CN2C(=O)C3(CC3)c3ccncc32)cc2cc(Cl)ccc21`, in that order: 17100, 51200 nM and 8.52.
For `CS(=O)(=O)CCn1c(CN2C(=O)C3(CC3)c3ccncc32)cc2cc(Cl)ncc21`, in that order: 300, 98900 nM and 6.48.
For `O=C1N(Cc2cc3cc(Cl)ccc3n2[C@H]2CCS(=O)(=O)C2)c2cnccc2C12CC2`, in that order: 4720, 42500 nM and 8.05.
For `CS(=O)(=O)CCc1c(Cn2c(=O)n(C3CC3)c3ccncc32)nc2cc(Cl)ccn12`, the AUC in [13] stood at 315 µg/L/h. This compound had a half-life in data set [14] of 1.73 h. In addition, the Vd in data set [15] was 1.29 L/kg. The bioavailability in data set [16] turned out to be 16.9%. In data set [17], this compound yielded a clearance of 93.3 mL/min/kg.
For `CS(=O)(=O)CCn1c(CN2C(=O)C3(CC3)c3ccncc32)cc2c(Cl)cccc21`, the selectivity ratio in [1] was over 60. Moreover, the CC50 at 144 h in [2] was over 100000 nM. Moreover, the pEC50 in [3] is 5.78.
